Experimental data as given in patent US5260327A, “Methods for inhibiting the proliferation of brain and hepatic metastases by using lonidamine” (priority 1992, dated 1993).
Entries after “also recorded” stand apart in the source; their conditions may differ.

Tests used:
[1] = test system: repair of radiation-induced potentially lethal damage (PLD); settings: cited from earlier work
hepatic metastases = assay: Phase I study of lonidamine + radiation therapy in patients with hepatic metastases; type: in vivo, human (patients)
Description: Lonidamine has received extensive clinical assessment both as a single agent and in combination with radiation therapy. […] In this dosage peak plasma levels of 5 to 15 μg/ml are attained; this is within the range that enhances the effect of radiation and hyperthermia in model systems (24-26, 30, 37 and 38). Two combined lonidamine+radiation therapy studies have been conducted in patients with extensive hepatic or brain metastases, respectively. […] The study in patients with brain metastases employed a randomized comparative design. Fifty eight patients were enrolled; 31 received lonidamine plus whole brain radiation therapy (WBRT) 300 cGy×10; 27 received WBRT alone.

spermatogenesis = settings: in vivo; cited from earlier work
Meth-A fibrosarcoma [2] = assay: In vivo therapy with lonidamine, radiation and hyperthermia, tumor control; parameters: species or system BALB/cBy mice
Description: Localized radiation and hyperthermia was performed on BALB/cBy mice when tumors were 0.7+/-0.1 cucm and tumor analysis endpoints have been previously described. (26) Tumor control was defined as non-palpable tumor at 60 days. Waterbath temperatures were 41.7° C./65 minutes and […]/65 minutes×2 fractions. […] (Bailey, 26 g thermocouple) below circulated water bath temperatures. Separation between the two hyperthermia treatments was 72 hours.
Lonidamine administration at hour pre-radiation and immediately hyperthermia and was based on serum pharmacokinetic and radiation studies (25). Animals were primed at 100 mg/kg. s.c., 3 days pre-radiation or hyperthermia. At the initiation of radiation or hyperthermia, animals were inoculated 50 mg/kg i.p. 1 hour before treatment and 50 mg/kg s.c. at 48 hours post treatment. Animals were maintained (100 mg/kg) during fractionation and post treatment until recurrence to initial volumes.

[3] = test system: multicellular HeLa spheroids; assay: Radio-enhancement in multicellular tumor spheroids (growth delay); type: cell-based, human
Source text: Based on these studies, and on supportive studies in mice receiving the drug chronically,Kim et al. proposed that optimal use of lonidamine would be to employ it both during and, in a prolonged exposure, after the course of radiation therapy.
The drug's radio-enhancing effects in multicellular tumor spheroids (MTS) was examined assessing growth delay following radiation with and without the drug.

[4] = test system: oxidative and glycolytic metabolism of mammalian cells; settings: cited from earlier work
[5] = test system: Stage 2-4 head and neck cancer; settings: cited from earlier work
Meth-A fibrosarcoma [6] = assay: In vivo trimodality therapy versus single and bimodality therapy, tumor growth delay; parameters: species or system mice; settings: lonidamine 50 mg/kg/day
Source text: (§1) The effect of trimodality therapy has been examined in HeLa monolayer cell cultures and in the transplanted Meth-A fibrosarcoma. The studies in HeLa cell cultures used a single radiation fraction, and prompt subculture for clonal analysis, conditions which would reduce any heat or drug-induced effect on potential lethal damage. […] In vivo comparative assessment of trimodality therapy versus single and bimodality combination was made in the oxic Meth-A fibrosarcoma. The trimodality regimen consisted of lonidamine (50 mg/kg/day chronically throughout the period of observation), plus radiation therapy (6 Gy×5), and hyperthermia (41.2° C.×65 min pre radiation therapy on days 1 and 4 of therapy); the results are presented in FIG. 14.

HeLa cells = assay: Trimodality therapy in HeLa monolayer cell cultures; type: cell-based, human
Source text: Lonidamine was present only during heating.
as §1

brain metastases = settings: cited from earlier work
[7] = test system: cell culture and murine tumor systems; settings: cited from earlier work
[8] = cited from earlier work
[9] = single large daily dosage just prior to radiation

## O=C(O)c1nn(Cc2ccc(Cl)cc2Cl)c2ccccc12 [lonidamine]
[1]
  inhibition of repair of radiation-induced potentially lethal damage: inhibitor of repair of radiation-induced potentially lethal damage; also recorded: established inhibitor of repair of potential lethal damage
Hepatic metastases; lonidamine + radiation therapy 250 to 500 cGy ×5
  objective tumor regression: five of fifteen
Hepatic metastases; [9]
  patients with peak plasma levels ≥15 μg/ml, hepatic study: 11 of 17
Hepatic metastases; single large daily lonidamine dosage + radiation therapy
  patient tolerance of the combination: acceptable patient tolerance
spermatogenesis
  inhibition of spermatogenesis: potent inhibitor of spermatogenesis in mammals
Meth-A fibrosarcoma [2]; 41.2° C. or 41.7° C., fractionated
  tumor response, lonidamine+hyperthermia vs hyperthermia alone and radiation+lonidamine vs radiation alone: No differences were observed
Meth-A fibrosarcoma [2]; adjuvant
  tumor response, lonidamine in adjuvant capacity: Marginal differences in tumor response
Meth-A fibrosarcoma [2]; mouse, in vivo
  tri-modality therapy vs single or bi-modality treatments: consistently greater effect when compared to single or bi-modality treatments
Meth-A fibrosarcoma [2]; non-palpable tumor at 60 days, 41.2° C. or 41.7° C.
  tumor control, tri-modality therapy (radiation+hyperthermia+lonidamine): 50-56%
Meth-A fibrosarcoma [2]; tumor control
  tri-modality therapy vs radiation+hyperthermia at 41.2° C.: more effective than the tumor control for radiation+hyperthermia at 41.2 °C
[3]; lonidamine removed 5 days following the last radiation exposure
  spheroid regrowth on lonidamine removal: begins to grow again when lonidamine is removed
[3]; multicellular HeLa spheroids, with radiation
  effect of fractionation of radiation dose on lonidamine effect: increased by fractionation of the radiation dose; also recorded: increased with increasing dose fractionation
[4]
  effects on oxidative and glycolytic metabolism: inhibitory effects on both oxidative and glycolytic metabolism of mammalian cells; also recorded: perturb energy metabolism in neoplastic cells
[5]; Radiation Therapy+Lonidamine 150 mg t.i.d. (placebo arm: 25%)
  disease free survival at 2 years (all patients): 51%
[5]; Radiation Therapy+Lonidamine 150 mg t.i.d. (placebo arm: 58%)
  complete response rate: 69%
[5]; Radiation Therapy+Lonidamine 150 mg t.i.d. vs placebo arm
  remission duration: longer in the lonidamine treated arm
[5]; lonidamine + radiation therapy, placebo-controlled randomized study
  disease free survival rate versus radiation therapy: significantly increased the disease free survival rate
Meth-A fibrosarcoma [6]; 6 Gy×5, 41.2° C.×65 min, regrowth not yet evident (radiation+hyperthermia: day 18)
  day of tumor regrowth, trimodality therapy: > 32 days
Meth-A fibrosarcoma [6]; radiation 6 Gy×5 (radiation alone: day 11)
  tumor growth inhibition, radiation therapy+lonidamine, until day: 13 days
Meth-A fibrosarcoma [6]; radiation 6 Gy×5, hyperthermia 41.2° C.×65 min days 1 and 4
  tumor regression, trimodality therapy: tumor regression to the point of non-palpability
HeLa cells; 37° C.
  cytotoxic effect on HeLa cells: no cytotoxic effect on HeLa cells at 37 °C
HeLa cells; radiation therapy+lonidamine+mild hyperthermia (41.5° C.), single radiation fraction
  trimodality therapy vs radiation alone or bimodality therapy: clearly superior to radiation alone, or bimodality therapy
Brain metastases; WBRT 300 cGy×10
  response or survival, lonidamine + WBRT vs WBRT alone: no significant difference in response or survival
Brain metastases; [9]
  patients with peak plasma levels ≥15 μg/ml, WBRT study: 15 of 30
[7]; acidification of cell culture medium
  pH dependence of hyperthermia enhancing effects: greatly increased by acidification of the cell culture medium; also recorded: increased in cells under conditions of reduced extracellular pH
[7]
  radiation and hyperthermia enhancement: radiation and hyperthermia enhancing agent in cell culture and murine tumor systems; also recorded: enhanced cytotoxic effects in cells treated either with radiation or hyperthermia
[8]; 150 mg t.i.d.
  peak plasma levels: 5 to 15 µg/mL
  tolerability: well tolerated by most patients
[8]; clinical
  dose-limiting side effect: skeletal muscle discomfort
